According to US20210311024A1, “NON-CLINICAL TEST METHOD CHARACTERIZED BY QUANTITATIVE EVALUATION OF EXPERIMENTAL ANIMAL SPECIMEN” (Konica Minolta, Inc., priority 2016, published 2021):

How the values were obtained:
Format in all cases: in vivo
[1] = tested on: PDX mice each transplanted with the breast cancer tissue of one of six patients (A to F); experiment: Lapatinib drug efficacy (tumor volume) in breast cancer PDX mice, Example 1; conditions: 100 mg/kg i.v. twice a day, 42 times; for Tumor size (size at the start of administration is taken as 100%): 21 days after first administration
Protocol: To each of these PDX mice, 100 mg/kg of lapatinib (Trade name: Tykerb) was administered intravenously twice a day, for a total of 42 times. The measurement of the tumor volume was carried out before the administration and 21 days after the first administration. At the same time, a tissue section was collected from each mouse using a frozen needle, at each time point. The collected tissue sections were subjected to a formalin fixation treatment and a paraffin-embedding treatment, and then sliced to prepare sample slides, according to conventional methods. The thus prepared sample slides were used for the quantification of the expression level of HER2 as the target protein.

[2] = tested on: PDX mice each transplanted with the breast cancer tissue of one of six patients (A to F); experiment: Lapatinib drug efficacy in PDX mice selected for low CD140a score, Example 4; conditions: three mice per group selected for low CD140a score; 100 mg/kg i.v. twice a day, 42 times; 21 days after first administration
Protocol: PDX mice each transplanted with the breast cancer tissue (volume: about 200 mm^3) of one of six patients (A to F), which were the same as those used in Example 1, were purchased, five mice for each of the patients. These PDX mice were reared, and the size of the tumor in each mouse was measured every 3 or 4 days. When the tumor volume reached 500 mm^3, tumor tissue was collected from each mouse using a scalpel.
The observation and image capture of the immunostained images and the stained images for morphological observation were carried out in the same manner as in Example 1, to measure the PID score or the DAB score of CD140a. […]
To each of the thus selected three PDX mice, in each group, 100 mg/kg of lapatinib (trade name: Tykerb) was administered intravenously twice a day, for a total of 42 times, in the same manner as in Example 1, and the tumor volume was measured before the first administration, and 21 days after the first administration. […] The collected tissue sections were used for the quantification of the expression level of HER2 protein as the target protein, in the same manner as in Example 1.

[3] = tested on: hemato-lymphoid humanized model mice transplanted with tumor tissue of lung cancer patients; experiment: Nivolumab drug efficacy in hemato-lymphoid humanized model mice transplanted with lung cancer tissue, Example 5; conditions: 100 mg/kg i.v. twice a day, 42 times; 21 days after first administration
Excerpt: Hemato-lymphoid humanized mice, produced by transplanting human hematopoietic stem cells into mice with acquired immune deficiency, were transplanted with tumor tissue, to prepare hemato-lymphoid humanized model mice, which are one type of patient-derived tumor-transplanted mice. Tumor tissues collected from six lung cancer patients were purchased from SofiaBio, and the thus produced hemato-lymphoid humanized mice were each subcutaneously transplanted with the tumor tissue, having a size of 2 mm square, of one of the patients (five mice transplanted with the tumor tissue of one patient were produced for each of the patients). To each of the model mice whose tumor tissue had grown to the size of about 300 mm^3 one month after the transplantation, 100 mg/kg of an anti-human PD-1 monoclonal antibody preparation, nivolumab (trade name: Opdivo) was administered intravenously twice a day, for a total of 42 times. In the same manner as in Example 1, the tumor volume was measured before the first administration and 21 days after the first administration. At the same time, a tissue section was collected from each of the mice, and sample slides were prepared in the same manner as in Example 1. […]

Compound	Tumor size (size at the start of administration is taken as 100%) ([1]; Sample A (PID score 10, DAB score — before administration))	Tumor size (size at the start of administration is taken as 100%) ([1]; Sample B (PID score 30, DAB score 1+ before administration))	Tumor size (size at the start of administration is taken as 100%) ([1]; Sample C (PID score 100, DAB score 2+ before administration))	Tumor size (size at the start of administration is taken as 100%) ([1]; Sample D (PID score 200, DAB score 3+ before administration))	Tumor size (size at the start of administration is taken as 100%) ([1]; Sample E (PID score 400, DAB score 3+ before administration))	Tumor size (size at the start of administration is taken as 100%) ([1]; Sample F (PID score 800, DAB score 3+ before administration))	drug efficacy (effect of reducing the tumor size) in relation to PID score ([1]; among the PDX mice having the same DAB score of 3+)	drug efficacy (effect of reducing the tumor size) in relation to PID score of HER2 protein [2]	drug efficacy (effect of reducing the tumor size) in relation to PID score of PD-L1 protein [3]
CS(=O)(=O)CCNCc1ccc(-c2ccc3ncnc(Nc4ccc(OCc5cccc(F)c5)c(Cl)c4)c3c2)o1 [Lapatinib, lapatinib]	180%	120%	80%	70%	60%	10%	increased drug efficacy (effect of reducing the tumor size) of lapatinib tend to be observed in a PDX mouse having a higher PID score	increased drug efficacy (effect of reducing the tumor size) of lapatinib tend to be observed in a PDX mouse having a higher PID score of HER2 protein	–
nivolumab	–	–	–	–	–	–	–	–	increased drug efficacy (effect of reducing the tumor size) of nivolumab tend to be observed in a PDX mouse having a higher PID score of PD-L1 protein
